Experimental data published in PMC8482806, “A Novel Blood-Brain Barrier-Permeable Chemotherapeutic Agent for the Treatment of Glioblastoma” (Cureus, 2021).

Columns and labels:
U87-MGMT cells = assay: WST1 cell viability assay, U87-MGMT; format: cell-based; conditions: Homo sapiens, read-out: LC50 (μM ± SD)
Procedure: In vitro activities of QBS10072S and temozolomide (TMZ) in U87 and U87-MGMT cells were assessed using the WST1 cell viability assay in 96-well plates in which 500/well of cells were plated in sextuplets for each condition. To avoid cell loss, the following washing and medium removing procedures were all done using a P200 pipet without vacuum aspiration. For QBS10072S treatment, cells were washed with PBS the next day and incubated with 50 μL of various concentrations of QBS10072S in PBS for 1 hour at 37°C. After incubation, 150 μL of growth medium was added to each well. The medium was subsequently changed every two days until day 7. For TMZ treatment, cells were treated with 100 μL of various concentrations of TMZ in a growth medium for 2 days. After incubation, cells were put back in a normal growth medium and continued culturing for five days. In the end, 10 μL of WST1 reagent was added to each well and incubated at 37°C for 4h before subjecting to plate reading at 450 nm and 690nm using an EnSpire multimode plate reader (PerkinElmer). Background (OD690nm) was subtracted and data were normalized to the control. LC50s were determined by non-linear regression using GraphPad Prism (GraphPad Software Inc., San Diego, California)

[1] = test system: U251 intracerebral human GBM xenograft; assay: U251 intracerebral human GBM xenograft in athymic mice (BLI, survival); format: in vivo, mouse
Procedure: Five-week-old female athymic mice (nu/nu, homozygous: Simonsen Laboratories, Gilroy, CA), housed under aseptic conditions, received intracranial tumor cell injection as previously described and as approved by the University of California San Francisco Institutional Animal Care and Use Committee, Protocol #: AN111064-03. Briefly, mice were anesthetized by intraperitoneal injection of ketamine (100 mg/kg) and xylazine (10 mg/kg) and injected with 3 μL of tumor cell suspension (300,000 cells total) into the right caudate-putamen. Coordinates: 3 mm to the right from bregma, on top of the coronal suture, and 3.5 mm depth. Injection rate: ~30 second/uL. For treatment studies, eight mice were used for each group for LN229 studies and nine mice per group for U251 studies. Treatments began when tumors entered the log-phase of growth as measured by luminescence, for the LN229 experiment on Day 21 and for U251 experiments on Day 14.
Dosing levels and frequency are described in the figure legends.
For bioluminescence imaging (BLI), mice were anesthetized as above, then administered 150 mg/kg of luciferin (D-luciferin potassium salt, Gold Biotechnology, St. Louis, MO) via intraperitoneal injection. Ten minutes after luciferin injection, mice were examined for tumor bioluminescence with an IVIS Lumina imaging station and Living Image software (Caliper Life Sciences, Alameda, CA), and regions of interest were recorded as photons per second per steradian per square cm.
Mice were anesthetized via inhalation of 2.5% isoflurane with 1 L of oxygen per minute for five minutes prior to being positioned on an irradiation platform located 16.3 cm from a cesium-137 source (JL Shepherd & Associates, San Fernando, CA). Eyes, respiratory tracts, and bodies were protected with lead shielding. Mice received whole-brain irradiation at a dose rate of 247 cGy/min until 1.5 Gy radiation had been administered. After irradiation, animals were monitored until recovery. Mice were irradiated once daily for five consecutive days. All mice received the first radiation dose when tumors were in a log-phase growth (Day 14) as determined by BLI.
Tumor-bearing mice were treated with temozolomide (TMZ) 4 mg/kg via oral gavage, starting on day 14 post U251 cell injection once daily for five days - concurrent therapy with RT. TMZ was obtained from the UCSF hospital pharmacy and formulated with the Ora-Plus suspending vehicle (Perrigo, Dublin, Ireland) with a working concentration of 1 mg/mL.

[2] = [14C]-QBS10072S distribution by quantitative whole-body autoradiography in mice with intracranial LN229 tumors; format: in vivo, mouse; conditions: 5 mg/kg IV
Procedure: Athymic mice with intracranial implanted LN229 cells received a single IV dose of 5 mg/kg and 200 μCi/kg [14C]-QBS10072S into the tail vein using the formulation described above. Animals (one per time point) were sacrificed one, eight, and 24 hours post-dose, and frozen in a hexane/solid carbon dioxide bath for at least 10 minutes. The carcasses were processed as described for quantitative whole-body autoradiography. Briefly, sagittal sections (~ 40 μm thick) were cut using a microtome, mounted, and exposed to a [14C]-sensitive phosphor imaging plate for four days. The images were scanned and quantitated by image densitometry using MCID image analysis software. The concentrations of radioactivity were expressed as the μg equivalents of test article per gram sample (μg equiv/g). The upper and lower limits of quantification were 550 and 0.008 μg equiv/g, respectively (QPS, Newark, DE).

Q: Which CC50 (U87-MGMT cells) does the source give for `Cc1ccc(N(CCCl)CCCl)cc1C[C@H](N)CC(=O)O` [QBS10072S, (+)-(3S)-amino-4-[5-[bis(2-chloroethyl)amino]-2-methyl-phenyl]butanoic acid] here?
A: 12.8 ± 4.1 µM

Q: And the “body weight loss over the course of the study” value ([1]; 10 mg/kg IV once a week for six weeks)?
A: no significant body weight loss

Q: And the median survival time ([1]; 10 mg/kg IV once a week for six weeks, vehicle 37)?
A: 70 days

Q: What about the median survival time ([1]; QBS10072S 10 mg/kg once a week for 4 weeks + RT 1.5 Gy daily for 5 days, vehicle 35) of the same molecule?
A: 64 days

Q: And the median survival time ([1]; QBS10072S alone, 10 mg/kg once a week for 4 weeks, vehicle 35)?
A: 45 days

Q: What about the “tumor growth inhibition (TGI) vs. vehicle” value ([1]; day 35, 10 mg/kg IV once a week for six weeks) of the same molecule?
A: 95%

Q: What about the “%TGI” value ([1]; day 35, QBS10072S alone, 10 mg/kg once a week for 4 weeks) of the same molecule?
A: 86%

Q: And the “%TGI” value ([1]; day 35, combination of QBS10072S 10 mg/kg once a week for 4 weeks and RT 1.5 Gy once daily for 5 days)?
A: 96%

Q: And the “level in brain tumor as % of blood levels” value (from here on “level in brain tumor as %”) ([2]; 1 hour post-dose)?
A: 89%

Q: What about the “level in brain tumor as %” value ([2]; 8 hours post-dose) of the same molecule?
A: 73%

Q: What about the “level in brain tumor as %” value ([2]; 24 hours post-dose) of the same molecule?
A: 37%
